From article PMC4478171, “Synthesis, characterization, and preclinical validation of a PET radiopharmaceutical for interrogating Aβ (β-amyloid) plaques in Alzheimer’s disease” (EJNMMI Research, 2015)

What was measured:
[1] = Biodistribution studies in normal mice; type: in vivo, FVB mice; conditions: for Blood uptake / Bone uptake / Brain uptake / Kidney uptake / Liver uptake: FVB mice, n = 3
Experimental: All animal procedures were approved by the Washington University Animal Studies Committee. Pharmacokinetics of ^18F-7B in brain and other critical tissues of normal male 12-week-old FVB (wild type (WT); 28 to 36 g) mice were determined as previously described. Briefly, ^18F-7B (740 kBq) was dissolved in 100-μL saline containing 10% ethanol. All animals were anesthetized by isofluorane inhalation and injected with radiotracer ^18F-7B (740 kBq, 100 μL) via bolus injection through a tail vein. Animals were sacrificed by cervical dislocation under anesthesia at 5, 30, 60, and 120 min after injection (n = 3 each). Blood samples were obtained by cardiac puncture, organs then harvested rapidly, and all tissue samples analyzed for γ-activity. Data are expressed as the percentage injected dose (%ID) per gram of tissue (tissue kBq (injected kBq)^−1 (g tissue)^−1 × 100).

[2] = target: cortical Aβ plaques in AD frontal cortex sections (Homo sapiens, UniProt P05067); test: Autoradiography on AD frontal cortex sections with IHC correlation; type: binding; conditions: 10 nM tracer, 60 min, 12 μm AD frontal cortex sections
Sequence of cortical Aβ plaques in AD frontal cortex sections (P05067 672-711 limits assumed): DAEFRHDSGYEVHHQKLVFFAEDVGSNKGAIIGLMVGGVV
Experimental: Frozen AD frontal cortex sections (12 μm) were obtained using a TBS Minotome PLUS Cryostat. The tissue sections were thaw-mounted onto Superfrost Plus (Fisherbrand 12-550-15 (Fisherbrand, Leicestershire, UK)) microscope slides, allowed to air dry for 10 to 15 min, and stored at −80°C. For autoradiography, brain sections were brought to room temperature for 5 min and then pre-incubated in assay buffer (30 mM Tris-HCl, pH 7.4 + 0.1% BSA) for 10 min at RT. Sections were incubated with ^18F-7B (300 μL/slide; 10 nM) in the assay buffer for 60 min at room temperature. For determining nonspecific binding, adjacent sections were incubated in the additional presence of 2.5 μM cold ligand 7A. Sections were then washed at RT for 1 min in 30 mM Tris-HCl pH 7.4, 2 min in 70% ethanol/30 mM Tris-HCl, 1 min in 30% ethanol/30 mM Tris-HCl, and 1 min in 30 mM Tris-HCl (washing protocol using literature precedents. Sections were then dried and exposed to phosphor-imaging screen (BAS-MS 2025) for 30 min. Autoradiography images were obtained on a Fuji Bio-Imaging System FLA-7000 (Tokyo, Japan) and analyzed using MultiGauge software (Fuji, Tokyo, Japan). Following exposure to a phosphor-imaging screen, the sections were then blocked for 60 min at room temperature with 3% milk-0.25% Tween 20-PBS buffer. […]

AD homogenates = AD homogenates (Homo sapiens, UniProt P05067); test: Saturation radioligand binding to AD brain homogenates (insoluble fraction)
Sequence of AD homogenates (P05067 672-711 limits assumed): as above
Experimental: Well-established literature procedures were used for preparation of AD homogenates. Grey matter was isolated from frozen postmortem frontal cortex tissue by dissection with a scalpel. To prepare insoluble fractions, dissected tissue was sequentially homogenized in four buffers (3 mL/g wet weight of tissue) with glass dounce tissue grinders (Kimble, Vineland, NJ, USA): 1) high salt (HS) buffer: 50 mM Tris-HCl pH 7.5, 750 mM NaCl, 5 mM EDTA; 2) HSbuffer with 1%Triton X-100; 3) HSbuffer with 1%Triton X-100 and 1 M sucrose; and 4) phosphate-buffered saline (PBS). Homogenates were centrifuged at 100,000×g; after each homogenization step, the pellet was resuspended, and homogenized in the next buffer in the sequence. For comparison in initial binding studies, unfractionated tissue homogenates were also prepared by homogenization of tissue in only PBS. Binding assays were performed using previously described methods. Briefly, a fixed concentration (1 μM/well) of Aβ1-42 fibrils was incubated for 1 h at 37°C with increasing concentrations of ^18F-7B (1.5 to 100 nM) in 30 mM Tris-HCl pH 7.4, 0.1% BSA in a reaction volume of 150 μL. A fixed ratio of hot:cold (^18F-7B and 7A) was used for all radioligand concentrations. The exact hot:cold (^18F-7B:7A) ratio was measured in each experiment by counting an aliquot of a sample (2 μL) of the radioligand preparation in a scintillation counter. Binding of ^18F-7B to human brain homogenates was assessed by incubating samples of insoluble fraction (5-μg insoluble protein/well) from AD subjects, with increasing concentrations of ^18F-7B (1.5 to 100 nM). Nonspecific binding was determined in parallel experiments utilizing 7A (2.5 μM) for Aβ1-42 fibrils and 7A (5 μM) for AD tissue as a competitor. Bound and free radioligand were separated by vacuum filtration through glass fiber 96-well filter plates (Millipore Multiscreen FB filter plate), followed by washes using ice-cold assay buffer (3 × 150 μL). Glass fiber filters containing the bound ligand were mixed with Optiphase Supermix scintillation cocktail (150 μL; PerkinElmer, Waltham, MA, USA) and counted immediately. All data were obtained in triplicate and analyzed by curve fitting to a one-site binding model using nonlinear regression employing Graphpad Prism software (version 4.0) to determine Kd and Bmax values. Bmax values were calculated in pmol/gram wet weight of brain tissue.

CN(C)c1ccc(/C=C/c2nc3ccc(OCC[18F])cc3s2)cn1 [^18F-7B, (E)-5-(2-(6-(2-[^18F]-fluoroethoxy)-benzo[d]thiazol-2-yl)vinyl)-N,N-dimethylpyridin-2-amine]
Blood uptake ([1]; 5 min post i.v.): 3.18 ± 0.23 %ID/g | Bone uptake ([1]; 5 min post i.v.): 1.61 ± 0.20 %ID/g | Brain uptake ([1]; 5 min post i.v.): 7.23 ± 0.47 %ID/g | Kidney uptake ([1]; 5 min post i.v.): 6.72 ± 0.44 %ID/g | Liver uptake ([1]; 5 min post i.v.): 16.22 ± 1.43 %ID/g | Blood uptake ([1]; 30 min post i.v.): 2.51 ± 0.09 %ID/g | Bone uptake ([1]; 30 min post i.v.): 2.08 ± 0.13 %ID/g | Brain uptake ([1]; 30 min post i.v.): 2.27 ± 0.13 %ID/g | Kidney uptake ([1]; 30 min post i.v.): 2.83 ± 0.09 %ID/g | Liver uptake ([1]; 30 min post i.v.): 5.21 ± 0.08 %ID/g | Blood uptake ([1]; 60 min post i.v.): 2.40 ± 0.17 %ID/g | Bone uptake ([1]; 60 min post i.v.): 3.41 ± 0.37 %ID/g | Brain uptake ([1]; 60 min post i.v.): 2.00 ± 0.15 %ID/g | Kidney uptake ([1]; 60 min post i.v.): 2.20 ± 0.07 %ID/g | Liver uptake ([1]; 60 min post i.v.): 3.44 ± 0.20 %ID/g | Blood uptake ([1]; 120 min post i.v.): 1.86 ± 0.05 %ID/g | Bone uptake ([1]; 120 min post i.v.): 5.27 ± 0.34 %ID/g | Brain uptake ([1]; 120 min post i.v.): 1.55 ± 0.01 %ID/g | Kidney uptake ([1]; 120 min post i.v.): 1.59 ± 0.03 %ID/g | Liver uptake ([1]; 120 min post i.v.): 2.73 ± 0.16 %ID/g | brain uptake clearance ratio 5 min/120 min ([1]; %ID/g brain, normal mice): 4.66 | defluorination indicated by bone accumulation ([1]; as a function of time over 2 h, normal mice): slight defluorination | labeling of Aβ plaques in autoradiography [2]: showed labeling of cortical Aβ plaques | fold higher affinity for AD homogenates compared with fibrils (AD homogenates; AD homogenates vs Aβ1-42 fibrils): 3.4 fold | Bmax (AD homogenates; AD homogenates, one-site model): 1,432 pmol/g wet weight | fold lower binding affinity to AD homogenates than Florbetapir (AD homogenates; comparator value from ref 11): 5 fold | fold lower binding affinity to AD homogenates than Flutemetamol (AD homogenates; comparator value from ref 16): 2.6 fold | fold lower BP than 11C-PIB (AD homogenates; homogenates, comparator from ref 28): 6 fold | fold lower BP than 18F-Florbetaben (AD homogenates; homogenates, comparator from ref 36): 2 fold | Kd (AD homogenates; saturable specific binding, one-site model, nonspecific binding with 7A (5 μM)): 17.7 nM
